Reference: US5438062A, “Benzo(5,6)cycloheptapyridines, compositions and methods of use” (Schering Corporation, priority 1987, dated 1995)
One block for each molecule: values may come before it.

Tests used:
[1] = test system: PAF-induced platelet aggregation (platelet-rich plasma); test: PAF antagonism, in vitro platelet aggregation assay; type: cell-based; conditions: human PRP; for inhibition at 5 µM: dose 5 micromoles; for IC50: dose giving 50 % PAF antagonism, PAF 1-5×10^-8 M; for inhibition at 10 µM: dose 10 micromoles
Description: Blood was centrifuged at 110×g for 15 min. and the supernatant PRP carefully transferred into a polypropylene tube. Platelet-poor-plasma (PPP) was prepared by centrifuging PRP at 12,000×g for 2 min. in a Beckman Microfuge B. PRP was used within 3 hours of drawing the blood.
Platelet Aggregation Assay: When an aggregating agent such as PAF is added to PRP, platelets aggregate. An aggregometer quantifies this aggregation by measuring light (infra-red) transmission through PRP and comparing to PPP. The aggregation assays were performed using a dual-channel aggregometer (Model 440, Chrono-Log Corp., Hayertown, Pa.). PRP (0.45 ml) in aggregometer curettes was continually stirred (37° C.). Solutions of test compounds or vehicle were added to the PRP, and after incubation for 2 min., 10-15 μl aliquots of PAF solution were added so as to achieve a final concentration of 1-5×10^-8 M. Incubations were continued until the increase in light transmission reached a maximum (usually about 2 min). Values for inhibition were calculated by comparing maximal aggregation obtained in the absence and the presence of the compound. For each experiment, a standard PAF antagonist, such as alprazolam, was used as a positive internal control. […] The test results are shown below in Tables Ia, Ib and Ic.

[2] = CNS activity: antagonism of electro-convulsive shock (ECS); conditions: mouse, in vivo; mice, oral, one hour before ECS; read-out: ECS test ED50
Description: F. Antagonism of Electro-Convulsive Shock (ECS). The ECS test is a third test useful for determining CNS activity. […] One hour after oral administration of the test drug or vehicle, mice were administered a 13 mA, 60 cycle a.c. electroconvulsant shock (ECS) for 0.2 seconds via corneal electrodes.

[3] = test system: histamine-induced lethality; test: Antihistamine activity: prevention of histamine-induced lethality in guinea pigs; type: in vivo; conditions: Cavia porcellus, guinea pig; for responders at 1 mg/kg / responders at 5 mg/kg: 0.5 h, 1 hour before histamine 1.1 mg/kg i.v., read-out: Antihistaminic Activity, % Survival; for responders at 1 mg/kg: oral dose 1 mg/kg PO; for responders at 5 mg/kg: oral dose 5 mg/kg PO
Description: C. ANTIHISTAMINE ACTIVITY ASSAY
Prevention of Histamine-Induced Lethality in Guinea Pigs. Some of compounds shown below in Table I also were evaluated for antihistamine activity by their ability to protect female albino guinea pigs (250-350 g) against death induced by the intravenous injection of histamine dihydrochloride at 1.1 mg/kg, which is approximately twice the LD99. Doses of the antagonists were administered orally to separate groups of fasted animals 1 hour prior to the challenge with histamine and protection from death recorded for 30 minutes after histamine. ED50 values were determined for each drug by probit analysis.

[4] = CNS activity: antagonism of acetic acid writhing; conditions: mouse, in vivo; mice, oral, 15 minutes before acetic acid i.p.
Description: E. Antagonism of Acetic Acid Writhing. The acetic acid writhing test is a second test useful for determining CNS activity, and is essentially that described by HENDERSHOT and FORSAITH, J. Pharmac. […] Mice were injected with 0.6% aqueous acetic acid at 10 mg/kg i.p. 15 minutes after oral administration of the test drug. The number of writhes for each animal was counted during a 10 minute period starting 3 minutes after acetic acid treatment. A writhe was defined as a sequence of arching of the back, pelvic rotation and hind limb extension.

PAF-induced bronchospasm = PAF-induced bronchospasm in guinea pigs; type: in vivo; conditions: guinea pig, 3 mg/kg (iv)
Description: PAF is also a known bronchoconstrictive agent in mammals.
B. PAF-INDUCED BRONCHOSPASM IN GUINEA PIGS
Non-sensitized guinea Digs were fasted overnight, and the following morning were anesthetized with 0.9 ml/kg i.p. of dialurethane (0.1 g/ml of diallybarbituric acid, 0.4 g/ml of ethylurea and 0.4 g/ml of urethane). The trachea was cannulated and the animals were ventilated by a Harvard rodent respirator at 55 strokes/min. with a stroke volume of 4 ml. A side arm to the tracheal cannula was connected to a Harvard pressure transducer to obtain a continuous measure of intratracheal pressure, which was recorded on a Harvard Polygraph. The jugular vein was cannulated for the administration of compounds. The animals were challenged i.v. with PAF (0.4 ug/kg in isotonic saline containing 0.25% BSA) and the peak increase in inflation pressure that occurred within 5 min. after challenge was recorded. Test compounds were administered either orally (2 hrs. prior to PAF as a suspension in 0.4% methylcellulose vehicle) or intravenously (10 min. prior to PAF as a solution in dimethylsulfoxide).

SMILES: CC(=O)N1CCC(=C2c3ccc(Cl)cc3CCc3ccc[n+](C)c32)CC1
- inhibition at 5 µM [1]: 58%

SMILES: CC(=O)N1CCC(=C2c3ccc(Cl)cc3CCc3cc(C)cnc32)CC1
- inhibition at 0.12 µM ([1]; dose .12 micromoles): 44%

- IC50 [1]: 5000 nM
SMILES: COCC(=O)N1CCN(C2c3ccc(Cl)cc3CCc3cccnc32)CC1 (stereo not drawn) [8-chloro-11-(1-methoxyacetyl-4-piperazinyl)-6,11-dihydro-5H-benzo[5,6]cyclohepta[1,2-b]pyridine]

SMILES: COCC(=O)N1CCC(=C2c3ccc(Cl)cc3CCc3cccnc32)CC1 [R = CH2 OCH3, R^3 = Cl, R^4 = H, Z = O, 8-chloro-11-(1-methoxyacetyl-4-piperidylidene)-6,11-dihydro-5H-benzo[5,6]cyclohepta[1,2-b]pyridine]
- ED50 [2]: > 320 mg/kg
- responders at 1 mg/kg [3]: 80%
- responders at 5 mg/kg [3]: 80%
- ED50 [4]: > 320 mg/kg
- IC50 [1]: 6000 nM

SMILES: C=CC(=O)N1CCC(=C2c3ccc(Cl)cc3CCc3cccnc32)CC1 [R^3 = Cl, R^4 = H, R = CHCH2, Z = O, 8-chloro-11-[1-acryloyl-4-piperidylidene]-6,11-dihydro-5H-benzo[5,6]cyclohepta[1,2-b]pyridine]
- inhibition at 25 µM ([1]; dose 25 micromoles): 63%

SMILES: CCOC(=O)N1CCC(=C2c3ccc(Cl)cc3CCc3cccnc32)CC1 [R = OC2 H5, R^3 = Cl, R4 = H, Z = O, 8-chloro-6,11-dihydro-11-(1-ethoxycarbonyl-4-piperidylidene)-5H-benzo[5,6]cyclohepta[1,2-b]pyridine, reference compound]
- ED50 ([3]; oral, probit analysis, read-out: Antihistaminic Activity, ED50): 0.19 mg/kg

SMILES: CCC(=O)N1CCC(=C2c3ccc(Cl)cc3CCc3cccnc32)CC1 [R = CH2 CH2, R^3 = Cl, R^4 = H, Z = O, 8-chloro-11-(1-propionyl-4-piperidylidene)-6,11-dihydro-5H-benzo[5,6]cyclohepta[1,2-b]pyridine]
- ED50 [2]: > 320 mg/kg
- responders at 1 mg/kg [3]: 40%
- responders at 5 mg/kg [3]: 80%
- ED50 [4]: > 320 mg/kg
- inhibition at 3 µM ([1]; dose 3 micromoles): 60%

SMILES: CC(=O)N1CCC(=C2c3cc(F)ccc3CCc3cccnc32)CC1 [R = CH3, Z = O, R^3 = H, R^4 = F, 9-fluoro-11-(1-acetyl-4-piperidylidene)-6,11-dihydro-5H-benzo[5,6]cyclohepta[1,2-b]pyridine]
- responders at 5 mg/kg [3]: 0%
- IC50 [1]: 900 nM
- inhibition of PAF-induced bronchospasm (PAF-induced bronchospasm): 97%

- IC50 [1]: 500 nM
SMILES: CC(=O)N1CCC(=C2c3ccc(Cl)cc3C=Cc3cccnc32)CC1

- IC50 [1]: 5000 nM
SMILES: O=CN1CCN(C2c3ccc(Cl)cc3CCc3cccnc32)CC1 (stereo not drawn) [R^3 = Cl, X = N, R = H, Z = O, R^4 = H, 8-chloro-11-(1-formyl-4-piperazinyl)-6,11-dihydro-5H-benzo[5,6]cyclohepta[1,2-b]pyridine]

SMILES: COCC(=O)N1CCC(=C2c3ccc(F)cc3CCc3cccnc32)CC1 [R = CH2 OCH3, R^3 = F, R^4 = H, Z = O, 8-fluoro-11-(1-methoxyacetyl-4-piperidylidene)-6,11-dihydro-5H-benzo[5,6]cyclohepta[1,2-b]pyridine]
- ED50 [2]: < 320 mg/kg
- responders at 1 mg/kg [3]: 100%
- responders at 5 mg/kg [3]: 100%
- ED50 [4]: < 320 mg/kg
- inhibition at 10 µM [1]: 9%

- IC50 [1]: 1000 nM
SMILES: CC(=O)N1CCC(=C2c3ccc(Cl)cc3CC(C)c3cccnc32)CC1 (stereo not drawn) [5-methyl-8-chloro-11-[1-acetyl-4-piperidylidene]-5H-benzo[5,6]cyclohepta[1,2-b]pyridine]

SMILES: CCSC(=O)N1CCC(=C2c3ccc(Cl)cc3CCc3cccnc32)CC1 [R = SCH2 CH3, R^3 = Cl, R^4 = H, Z = O, 8-chloro-11-[1-thioethoxycarbonyl-4-piperidylidene]-6,11-dihydro-5H-benzo[5,6]cyclohepta[1,2-b]pyridine]
- ED50 [2]: > 320 mg/kg
- responders at 1 mg/kg [3]: 100%
- responders at 5 mg/kg [3]: 80%
- ED50 [4]: > 320 mg/kg
- inhibition at 10 µM [1]: 0%

- IC50 [1]: 5000 nM
SMILES: CC(=O)N1CCC(=C2c3ccc(Cl)cc3CC(O)c3cccnc32)CC1 (stereo not drawn) [5-hydroxy-8-chloro-11-(1-acetyl-4-piperidylidene)-6,11-dihydro-5H-benzo[5,6]cyclohepta[1,2-b]pyridine]

- IC50 [1]: 1500 nM
SMILES: CC(=O)N1CCC(=C2c3ccccc3CCc3ccc[n+]([O-])c32)CC1

SMILES: CC(=O)N1CCC(=C2c3cc(F)c(F)cc3CCc3ccc[n+]([O-])c32)CC1
- inhibition at 2.5 µM ([1]; dose 2.5 micromoles): 53%

SMILES: CNC(=O)N1CCC(=C2c3ccc(Cl)cc3CCc3cccnc32)CC1 [R^3 = Cl, R^4 = H, R = NHCH3, Z = O, 8-chloro-11-(1-methylaminocarbonyl-4-piperidylidene)-6,11-dihydro-5H-benzo[5,6]cyclohepta[1,2-b]pyridine]
- inhibition at 50 µM ([1]; dose 50 micromoles): 29%

SMILES: CC(=O)N1CCC(=C2c3cc4ccccc4cc3CCc3cccnc32)CC1
- inhibition at 5 µM [1]: 35%

- IC50 [1]: 1200 nM
SMILES: CC(=O)N1CCC(=C2c3ccc(Br)cc3CCc3cccnc32)CC1 [R^3 = Br, R^4 = H, R = CH3, Z = O, 8-bromo-11-[1-acetyl-4-piperidylidene]-6,11-dihydro-5H-benzo[5,6]cyclohepta[1,2-b]pyridine]

- IC50 [1]: 5000 nM
SMILES: CC(=O)N1CCC(C2c3ccccc3CCc3cccnc32)CC1 (stereo not drawn) [R^3 = H, R^4 = H, R = CH3, Z = O, X = CH, 11-(1-acetyl-4-piperidyl)-6,11-dihydro-5H-benzo[5,6]cyclohepta[1,2-b]pyridine]

SMILES: CCCC(=O)N1CCC(=C2c3ccc(Cl)cc3CCc3cccnc32)CC1 [8-chloro-11-(1-n-butyryl-4-piperidylidene)-6,11-dihydro-5H-benzo[5,6]cyclohepta[1,2-b]pyridine]
- ED50 [2]: > 320 mg/kg
- responders at 1 mg/kg [3]: 40%
- responders at 5 mg/kg [3]: 100%
- ED50 [4]: > 320 mg/kg

- IC50 [1]: 1200 nM
SMILES: CC(=O)N1CCC(=C2c3ccc(Cl)cc3CC(=O)c3cccnc32)CC1 [8-chloro-11-[1-acetyl-4-piperidylidene]-6,11-dihydro-5H-benzo[5,6]cyclohepta[1,2-b]pyridin-5-one]

SMILES: S=C(c1ccccc1)N1CCC(=C2c3ccc(Cl)cc3CCc3cccnc32)CC1 [Z = S, R = Ph, R^3 = Cl, R^4 = H, 8-chloro-11-(1-thiobenzoyl-4-piperidylidene)-6,11-dihydro-5H-benzo[5,6]cyclohepta[1,2-b]pyridine]
- ED50 [2]: > 320 mg/kg
- responders at 1 mg/kg [3]: 0%
- responders at 5 mg/kg [3]: 60%
- ED50 [4]: > 320 mg/kg

SMILES: CC(=O)N1CCN(C2c3ccc(Cl)cc3CCc3cccnc32)CC1 (stereo not drawn) [R^3 = Cl, X = N, R = CH3, Z = O, R^4 = H, 8-chloro-11-(1-acetyl-4-piperazinyl)-6,11-dihydro-5H-benzo[5,6]cyclohepta[1,2-b]pyridine]
- inhibition at 0.5 µM ([1]; dose .5 micromoles): 43%

SMILES: O=C(c1ccccc1)N1CCC(=C2c3ccc(Cl)cc3CCc3cccnc32)CC1 [Z = O, R = Ph, R^3 = Cl, R^4 = H, 8-chloro-11-(1-benzoyl-4-piperidylidene)-6,11-dihydro-5H-benzo[5,6]cyclohepta[1,2-b]pyridine]
- responders at 1 mg/kg [3]: 0%
- responders at 5 mg/kg [3]: 100%
- inhibition at 10 µM [1]: 9%
